pIC50: −log10 of the molar value.
Legend:
[1] = target: T1, Protein farnesyltransferase (Homo sapiens, UniProt P49354+P49356); assay: Inhibition of human recombinant farnesyltransferase using farnesylpyrophosphate and dansyl-GCVLS as substrate at 100 uM measured for 15 mins by fluorescence assay; type: protein-complex assay
[2] = target: T1, Protein farnesyltransferase; assay: Inhibition of human recombinant farnesyltransferase using farnesylpyrophosphate and dansyl-GCVLS as substrate measured for 15 mins by fluorescence assay; type: protein-complex assay

| inhibition [1] [%] | pIC50 [2] | Structure (SMILES) |
| --- | --- | --- |
| 94 | 4.71 | CCOC(=O)c1cc(C(=O)/C=C/c2cc(OC)c(OC)c(OC)c2)n2ccccc12 |
| 7 | – | CCOC(=O)c1cc(C(=O)/C=C/c2cc(OC)c(OC)c(OC)c2)n2c(C)cccc12 |
| 76 | 4.93 | CCOC(=O)c1cc(C(=O)/C=C/c2cc(OC)c(OC)c(OC)c2)n2ccc(OC)cc12 |
| 88 | 6.14 | COc1cc(/C=C/C(=O)c2ccc3c(C)cc(C)cn23)cc(OC)c1OC |
| 88 | 4.80 | COc1cc(/C=C/C(=O)c2cc(C(=O)O)c3c(C)cc(C)cn23)cc(OC)c1OC |

Continued, molecule first:

| Structure (SMILES) | inhibition [1] [%] | pIC50 [2] |
| --- | --- | --- |
| CCOC(=O)c1cc(C(=O)/C=C/c2ccc(-c3ccccc3)cc2)n2ccc(OC)cc12 | 95 | 5.88 |
| CCOC(=O)c1cc(C(=O)/C=C/c2ccc3c(c2)Sc2ccccc2N3C)n2ccc(C)cc12 | 98 | 6.81 |
| CCOC(=O)c1cc(C(=O)/C=C/c2ccc(Cl)cc2)n2ccc(OC)cc12 | 85 | 6.03 |
| CCOC(=O)c1cc(C(=O)/C=C/c2ccc3c(c2)Sc2ccccc2N3C)n2ccccc12 | 85 | 8.05 |
| CCOC(=O)c1cc(C(=O)/C=C/c2ccc(C#N)cc2)n2ccc(OC)cc12 | 95 | 5.06 |
| COc1ccn2c(C(=O)/C=C/c3ccc(Cl)cc3)cc(C(=O)O)c2c1 | 88 | 5.63 |
| CCOC(=O)c1cc(C(=O)/C=C/c2ccc(Br)cc2)n2ccc(OC)cc12 | 100 | 6.22 |
| CCOC(=O)c1cc(C(=O)/C=C/c2ccc(OC)cc2)n2ccc(OC)cc12 | 68 | – |
| CCOC(=O)c1cc(C(=O)/C=C/c2ccc3c(c2)Sc2ccccc2N3C)n2ccc(OC)cc12 | 84 | 6.15 |
| CSCC[C@H](NC(=O)c1ccc(NC[C@@H](N)CS)cc1-c1ccccc1)C(=O)O | 100 | – |
| CCOC(=O)c1cc(C(=O)/C=C/c2ccc3c(c2)Sc2ccccc2N3C)n2c(C)cccc12 | 91 | 7.64 |

From ChEMBL document CHEMBL3826975, “New indolizine-chalcones as potent inhibitors of human farnesyltransferase: Design, synthesis and biological evaluation” (Bioorg Med Chem Lett, 2016)
